Experimental data published in patent publication US20170360780A1, “PHARMACEUTICAL COMPOSITION COMPRISING BICYCLIC NITROGEN-CONTAINING AROMATIC HETEROCYCLIC AMIDE COMPOUND AS ACTIVE INGREDIENT” (Astellas Pharma Inc., priority 2014, published 2017).

What was measured:
RPMI 8226 cells [1] = assay: Test Example 4: anti-tumor test on SCID mice bearing RPMI 8226 human myeloma tumors; format: in vivo; conditions: RPMI 8226, SCID mice, 18 days, next day of final administration
Text: (§1) KMS-12-BM cells and RPMI 8226 cells which are derived from human myeloma were respectively purchased from JCRB cell bank (National Institutes of Biochemical Innovation, Health and Nutrition), and ATCC. KMS-12-BM cells were implanted to CAnN.Cg-Foxn1^nu/CrlCrlj mice (4- to 5-week-old male nude mice, Charles River Laboratories Japan, Inc.), and RPMI 8226 cells to CB17/Icr-Prkdc^scid/CrlCrlj mice (4- to 5-week-old male SCID mice, Charles River Laboratories Japan, Inc.), respectively. Each of tumor cells were prepared at 5×10^7 cells/mL of a mixed solution of PBS and Matrigel (registered trademark) in 1:1 ratio, and 0.1 mL was implanted to the mice under the skin on the back (5×10^6 cells/head). Dividing into groups by the tumor volume was performed when tumor cells were engrafted under the skin and the average tumor volume exceeded approximately 150 mm^3 (5 mice for each group). The test compound dissolved in 6% cyclodextrin aqueous solution (Sigma-Aldrich Co.) was orally administered by the dosage of 8 mg/kg or 1 mg/kg once a day. 6% Cyclodextrin aqueous solution was also orally administered for the solvent group (control group) once a day. Oral administration was performed continuously for 17 days for KMS-12-BM cells, and 18 days for RPMI 8226 cells. The inhibition rate of tumor growth and the rate of tumor regression on the next day of the final administration were calculated by using the formula below.
(§2) [Tumor volume (mm^3)]=[major axis of tumor (mm)]×[minor axis of tumor (mm)]^2×0.5
(§3) Inhibition rate of tumor growth (%)=(1−average of tumor volume growth in each group/average of tumor volume growth in control group)×100
(§4) Rate of tumor regression (%)=(1−average tumor volume in each group on measuring day/average tumor volume in each group when dividing groups)×100

OPM-2 cells = assay: Test Example 3: anti-tumor test on nude mice bearing OPM-2 human myeloma tumors; format: in vivo; conditions: OPM-2, nude mice, 8 mg/kg oral once a day, 7 days; next day of final administration
Method: (§5) KMS-12-BM cells (purchased) or OPM-2 cells (purchased) derived from human myeloma were prepared at 5×10^7 cells/mL of a mixed solution of PBS and Matrigel (registered trademark) in 1:1 ratio, and 0.1 mL was implanted to CAnN.Cg-Foxn1^nu/CrlCrlj mice (4-week-old male nude mice, Charles River Laboratories Japan, Inc.) under the skin on the back (5×10^6 cells/head). Dividing into groups by the tumor volume was performed when tumor cells were engrafted and the average tumor volume exceeded approximately 300 mm^3 (5 mice for each group). The test compound dissolved in 6% cyclodextrin aqueous solution (Sigma-Aldrich Co.) was orally administered by the dosage of 8 mg/kg once a day for 21 days in the test using KMS-12-BM cells, and for 7 days in the test using OPM-2 cells, respectively. 6% Cyclodextrin aqueous solution was orally administered for a solvent group (control group) once a day.
(§6) The body weight and the tumor diameter were measured twice a week, and the anti-tumor effect and the effect on the body weight were examined. For calculation of the tumor volume, the formula below was used.
as §2
(§7) The inhibition rate of tumor growth and the rate of tumor regression were calculated from the average value of the tumor volume according to the formula below. […]

KMS-12-BM cells [2] = assay: Test Example 5: combination use with lenalidomide, nude mice bearing KMS-12-BM tumors; format: in vivo, human; conditions: 27 days, next day of final administration
Method: KMS-12-BM cells derived from human myeloma were prepared at 2.8×10^7 cells/mL of a mixed solution of PBS and Matrigel (registered trademark) in 1:1 ratio, and 0.1 mL was implanted to CAnN.Cg-Foxn1^nu/CrlCrlj mice (4-week-old male nude mice, Charles River Laboratories Japan, Inc.) under the skin on the back (2.8×10^6 cells/head). Dividing into groups by the tumor volume was performed when tumor cells were engrafted and the average tumor volume exceeded approximately 200 mm^3, and 5 mice were set for each group. The test compound dissolved in 6% cyclodextrin aqueous solution was orally administered by the dosage of 2 mg/kg once a day for 27 days. Lenalidomide (MedChemExpress.) was suspended in 6% cyclodextrin aqueous solution and was orally administered by the dosage of 100 mg/kg once a day for 27 days. The dosage of 2 mg/kg of the test compound and 100 mg/kg of lenalidomide were orally administered for a combination administered group once a day, respectively. 6% Cyclodextrin aqueous solution was orally administered for the solvent group (control group) once a day. The body weight and the tumor diameter were measured twice a week, and the anti-tumor effect and the effect on the body weight were examined. For calculation of the tumor volume, the formula below was used.
as §2
The inhibition rate of tumor growth and the rate of tumor regression were calculated from the average value of the average tumor volume according to the formula below.
as §3, §4

KMS-12-BM cells [3] = assay: Test Example 6: combination use with lenalidomide, nude mice bearing KMS-12-BM tumors; format: in vivo, human; conditions: for Rate of tumor regression / Inhibition rate of tumor growth: KMS-12-BM, nude mice, 14 days, next day of final administration; for Anti-tumor effect of combination use with lenalidomide versus single administration: mice bearing tumors of human myeloma, combination use of lenalidomide and compound
Method: KMS-12-BM cells derived from human myeloma were prepared at 5×10^7 cells/mL of a mixed solution of PBS and Matrigel (registered trademark) in 1:1 ratio, and 0.1 mL was implanted to CAnN.Cg-Foxn1^nu/CrlCrlj mice (4- to 5-week-old male nude mice, Charles River Laboratories Japan, Inc.) under the skin on the back (5×10^6 cells/head). Dividing into groups by the tumor volume was performed when tumor cells were engrafted under the skin and the average tumor volume exceeded approximately 200 mm^3. […] The test compound dissolved in 6% cyclodextrin aqueous solution was orally administered by the dosage of 8 mg/kg or 1 mg/kg once a day for 14 days continuously. Lenalidomide (MedChemExpress.) was suspended in 6% cyclodextrin aqueous solution and was orally administered by the dosage of 100 mg/kg once a day for 14 days continuously. The inhibition rate of tumor growth and the rate of tumor regression in each group on the next day of the final administration were calculated by using the formula below.
as §2, §3
Rate of tumor regression (%)=(1−average tumor volume in each group on measuring day/average tumor volume in each group when starting administration)×100
The inhibition rate of tumor growth and the rate of tumor regression in each group on the next day of the final administration is shown in Table 6.

KMS-12-BM cells [4] = assay: Test Example 3: anti-tumor test on nude mice bearing KMS-12-BM human myeloma tumors; format: in vivo; conditions: 8 mg/kg oral once a day, 21 days, next day of final administration
Method: as §5, §6, §2, §7

KMS-12-BM cells [5] = assay: Test Example 4: anti-tumor test on nude mice bearing KMS-12-BM human myeloma tumors; format: in vivo; conditions: 17 days, next day of final administration
Text: as §1, §2, §3, §4

RPMI 8226 cells [6] = assay: Test Example 3: anti-tumor test on SCID mice bearing RPMI 8226 human myeloma tumors; format: in vivo; conditions: RPMI 8226, SCID mice, 8 mg/kg oral once a day, 21 days; next day of final administration
Method: RPMI 8226 cells (purchased) derived from human myeloma were prepared at 5×10^7 cells/mL of a mixed solution of PBS and Matrigel (registered trademark) in 1:1 ratio, and 0.1 mL was implanted to CB17/Icr-Prkdc^scid/CrlCrlj mice (5-week-old male SCID mice, Charles River Laboratories Japan, Inc.) under the skin on the back (5×10^6 cells/head). Dividing into groups by the tumor volume was performed when tumor cells were engrafted and the average tumor volume exceeded approximately 150 mm^3 (5 mice for each group). The test compound dissolved in 6% cyclodextrin aqueous solution was orally administered by the dosage of 8 mg/kg once a day for 21 days continuously. 6% Cyclodextrin aqueous solution was orally administered for a solvent group (control group) once a day.
as §6, §2
The inhibition rate of tumor growth and the rate of tumor regression were calculated from the average value of the tumor volume according to the formula below.
Inhibition rate of tumor growth (%)=(1−average of tumor volume growth in each group/average of tumor volume growth in control group)×100 […]

[7] = test compound 8 mg/kg + lenalidomide 100 mg/kg oral once a day
[8] = test compound 8 mg/kg + solvent, oral once a day
[9] = test compound 1 mg/kg + lenalidomide 100 mg/kg oral once a day
[10] = test compound 1 mg/kg + solvent, oral once a day

COc1ccc(CN2CCC(c3ccc4[nH]c(C(=O)N5CCN(Cc6ccc(C(F)(F)F)cc6)CC5)nc4c3)CC2)cn1 [Compound A1, (5-{1-[(6-methoxypyridin-3-yl)methyl]piperidin-4-yl}-1H-benzimidazol-2-yl){4-[4-(trifluoromethyl)benzyl]piperazin-1-yl}methanone]
Inhibition rate of tumor growth (RPMI 8226 cells [1]; 8 mg/kg oral once a day): 99% inhibition
Rate of tumor regression (OPM-2 cells): 17% regression
Rate of tumor regression (KMS-12-BM cells [2]; test compound 2 mg/kg + lenalidomide 100 mg/kg oral once a day): 100% regression
Rate of tumor regression (KMS-12-BM cells [2]; test compound alone 2 mg/kg oral once a day): 24% regression
Rate of tumor regression (KMS-12-BM cells [3]; [7]): 39% regression
Inhibition rate of tumor growth (KMS-12-BM cells [3]; [8]): 100% inhibition
Rate of tumor regression (KMS-12-BM cells [4]): 100% regression
Inhibition rate of tumor growth (KMS-12-BM cells [5]; 8 mg/kg oral once a day): 99% inhibition
Inhibition rate of tumor growth (RPMI 8226 cells [6]): 97% inhibition

COc1ccc(CN2CCC(c3ccc4[nH]c(C(=O)N5CCN(Cc6ccc(C(F)(F)F)cc6)CC5)nc4c3)CC2)cn1 [Compound A, (5-{1-[(6-methoxypyridin-3-yl)methyl]piperidin-4-yl}-1H-benzimidazol-2-yl) {4-[4-(trifluoromethyl)benzyl]piperazin-1-yl}methanone]
Anti-tumor effect of combination use with lenalidomide versus single administration (KMS-12-BM cells [3]): stronger anti-tumor effect than each single administration thereof

COc1cnc(CN2CCC(c3ccc4[nH]c(C(=O)N5CCN(Cc6ccc(C(F)(F)F)cc6)CC5)nc4c3)CC2)cn1 [Compound B1, (5-{1-[(5-methoxypyrazin-2-yl)methyl]piperidin-4-yl}-1H-benzimidazol-2-yl){4-[4-(trifluoromethyl)benzyl]piperazin-1-yl}methanone]
Rate of tumor regression (RPMI 8226 cells [1]; 8 mg/kg oral once a day): 4% regression
Rate of tumor regression (KMS-12-BM cells [3]; [7]): 42% regression
Rate of tumor regression (KMS-12-BM cells [3]; [8]): 20% regression
Rate of tumor regression (KMS-12-BM cells [5]; 8 mg/kg oral once a day): 6% regression

COc1cnc(CN2CCC(c3ccc4[nH]c(C(=O)N5CCN(Cc6ccc(C(F)(F)F)cc6)CC5)nc4c3)CC2)cn1 [Compound B, (5-{1-[(5-methoxypyrazin-2-yl)methyl]piperidin-4-yl}-1H-benzimidazol-2-yl){4-[4-(trifluoromethyl)benzyl]piperazin-1-yl}methanone]
Anti-tumor effect of combination use with lenalidomide versus single administration (KMS-12-BM cells [3]): stronger anti-tumor effect than each single administration thereof

CCOc1cnc(CN2CCC(c3ccc4cc(C(=O)N5CCN(Cc6ccc(C#N)cc6)CC5)n(C)c4c3)CC2)cn1 [Compound C1, 4-({4-[(6-{1-[(5-ethoxypyrazin-2-yl)methyl]piperidin-4-yl}-1-methyl-1H-indol-2-yl)carbonyl]piperazin-1-yl}methyl)benzonitrile]
Rate of tumor regression (RPMI 8226 cells [1]; 1 mg/kg oral once a day): 25% regression
Rate of tumor regression (KMS-12-BM cells [3]; [9]): 64% regression
Rate of tumor regression (KMS-12-BM cells [3]; [10]): 40% regression
Rate of tumor regression (KMS-12-BM cells [5]; 1 mg/kg oral once a day): 68% regression

CCOc1cnc(CN2CCC(c3ccc4cc(C(=O)N5CCN(Cc6ccc(C#N)cc6)CC5)n(C)c4c3)CC2)cn1 [Compound C, 4-({4-[(6-{1-[(5-ethoxypyrazin-2-yl)methyl]piperidin-4-yl}-1-methyl-1H-indol-2-yl)carbonyl]piperazin-1-yl}methyl)benzonitrile]
Anti-tumor effect of combination use with lenalidomide versus single administration (KMS-12-BM cells [3]): stronger anti-tumor effect than each single administration thereof

COc1cnc(CN2CCC(c3ccc4c(c3)cc(C(=O)N3CCN(Cc5ccc(C#N)cc5)CC3)n4C)CC2)cn1 [Compound D1, 4-({4-[(5-{1-[(5-methoxypyrazin-2-yl)methyl]piperidin-4-yl}-1-methyl-1H-indol-2-yl)carbonyl]piperazin-1-yl}methyl)benzonitrile]
Inhibition rate of tumor growth (RPMI 8226 cells [1]; 1 mg/kg oral once a day): 75% inhibition
Inhibition rate of tumor growth (KMS-12-BM cells [3]; [9]): 74% inhibition
Inhibition rate of tumor growth (KMS-12-BM cells [3]; [10]): 61% inhibition
Inhibition rate of tumor growth (KMS-12-BM cells [5]; 1 mg/kg oral once a day): 71% inhibition

COc1cnc(CN2CCC(c3ccc4c(c3)cc(C(=O)N3CCN(Cc5ccc(C#N)cc5)CC3)n4C)CC2)cn1 [Compound D, 4-({4-[(5-{1-[(5-methoxypyrazin-2-yl)methyl]piperidin-4-yl}-1-methyl-1H-indol-2-yl)carbonyl]piperazin-1-yl}methyl)benzonitrile]
Anti-tumor effect of combination use with lenalidomide versus single administration (KMS-12-BM cells [3]): stronger anti-tumor effect than each single administration thereof

Nc1cccc2c1CN(C1CCC(=O)NC1=O)C2=O (stereo not drawn) [Lenalidomide, lenalidomide, reference compound]
Inhibition rate of tumor growth (KMS-12-BM cells [2]; lenalidomide alone 100 mg/kg oral once a day): 53% inhibition
Inhibition rate of tumor growth (KMS-12-BM cells [3]; solvent + lenalidomide 100 mg/kg oral once a day): 21% inhibition
